Results taken from patent publication US20190223437A1, “ACTIVE COMPOUND COMBINATIONS COMPRISING A 5-SUBSTITUTED IMIDAZOLE DERIVATIVE” (BAYER CROPSCIENCE AKTIENGESELLSCHAFT, priority 2016, published 2019).
Several values for one entry are separate records, joined by “and”; a condition that tells them apart may be missing. Equal entries are not always repeated. Where two headings read alike, the source gives them in different places.

Columns and labels:
[1] = tested on: Sphaerotheca fuliginea; assay: Example D: in vivo preventive test on Sphaerotheca test (cucumbers); settings: compound alone
[2] = tested on: Alternaria alternata; assay: Example F: in vitro-Test with Alternaria alternata; type: cell-based; settings: compound alone, growth inhibition, photometric, 3-5 days after application
[3] = Example G: in vivo ecotoxicity screening test on fish (Danio rerio); settings: Danio rerio, in vivo, other: exposure of embryos in water containing the compound
Method: (§1) with ECxi the Effect Concentration (EC) of each chemical i (in ppm) causing x % effect on the ecotoxicity test endpoint.
(§2) For each compound combination, the predicted ECx value is calculated. It is then compared to an experimentally measured value. The ratio of predicted versus measured effect for the combination (thereafter called the Model Deviation Ratio or MDR) is then calculated.
(§3) The environmental effect of the compound combinations was measured experimentally in laboratory ecotoxicity screening studies with fish (Danio rerio). […] Mortality was recorded after 48 h and 96 h for each tested concentration and a reference control. […] Then, the MDR values were calculated.
(§4) This concentrate is then diluted with water to the desired a.i. concentration, leading to a maximal solvent concentration of 0.5%. by weight The compounds alone and the combinations were tested for five increasing concentrations comprised between 0.01 and 1000 ppm (mg/1) a.i., (e.g. 0.1, 1.0, 10 and 100 ppm a.i). For the combinations, compounds A and B were mixed in a weight ratio of 5:1 to 1:5 and five increasing concentrations were tested for each ratio.

[4] = tested on: Colletotrichum coccodes; assay: Example B: in vivo preventive test on Colletotrichum test (tomatoes); settings: compound alone
Method: (§5) The test is evaluated 3 days after the inoculation.

[5] = tested on: Pyricularia oryzae; type: cell-based; settings: compound alone
[6] = tested on: Septoria tritici; assay: Example F: in vitro-Test with Septoria tritici; type: cell-based; settings: compound alone
[7] = tested on: causal agent of soybean rust (Phakopsora pachyrhizi); assay: Example C: in vivo preventive test on Phakopsora test (soybeans); settings: compound alone
[8] = tested on: fish (Danio rerio) embryos; assay: Example G: in vivo ecotoxicity screening test on fish (Danio rerio); settings: active compound alone, fish (D. rerio) embryos; for Ecotoxicity LC50-48 h found: mortality after 48 h; for Ecotoxicity LC50-96 h found: mortality after 96 h
Method: as §1, §2, §3, §4

[9] = tested on: Alternaria solani; assay: Example A: in vivo preventive test on Alternaria test (tomatoes); settings: compound alone, evaluated 3 days after inoculation
Method: as §5

[10] = tested on: Pyrenophora oryzae; assay: Example F: in vitro-Test with Pyrenophora oryzae; type: cell-based; settings: compound alone
[11] = tested on: causal agent of apple scab (Venturia inaequalis); assay: Example E: in vivo preventive test on Venturia test (apples); settings: compound alone

## CCCN(CC)CC1COC2(CCC(C(C)(C)C)CC2)O1 (stereo not drawn) [1.020 spiroxamine, spiroxamine, reference compound]
[1]; 25 ppm a.i.
  Efficacy in % found: 0%
[1]; 50 ppm a.i.
  Efficacy in % found: 30%
[1]; 100 ppm a.i.
  Efficacy in % found: 40%
[2]; 4 ppm
  Efficacy %: 13%
[2]; 20 ppm
  Efficacy %: 5%
[2]; 100 ppm
  Efficacy %: 66%
[3]
  LC50 at 48 h: 16.5 µg/mL
  LC50 at 96 h: 14.8 µg/mL

## COCC(=O)N(c1c(C)cccc1C)[C@H](C)C(=O)OC [12.004 mefenoxam]
[4]; 50 ppm a.i.
  Efficacy in % found: 0%
[4]; 100 ppm a.i.
  Efficacy in % found: 8%
[4]; 200 ppm a.i.
  Efficacy in % found: 15%
[5]; 20 ppm
  Efficacy %: 0%
[5]; 100 ppm
  Efficacy %: 0%
[6]; 20 ppm
  Efficacy %: 28%
[6]; 100 ppm
  Efficacy %: 42%
[7]; 50 ppm a.i.
  Efficacy in % found: 0%
[7]; 100 ppm a.i.
  Efficacy in % found: 8%
[7]; 200 ppm a.i.
  Efficacy in % found: 0%

## Cc1nn(C)c(F)c1C(=O)Nc1ccccc1C(C)CC(C)C (stereo not drawn) [Example 2.017, penflufen]
[8]
  Ecotoxicity LC50-48 h found: 1.74 ppm a.i.
  Ecotoxicity LC50-96 h found: 0.62 ppm a.i.

## N#Cc1cncn1CC(O)(Cc1ccccc1F)C1(Cl)CC1 (stereo not drawn) [Example I-34, 1-[2-(1-chlorocyclopropyl)-3-(2-fluorophenyl)-2-hydroxypropyl]-1H-imidazole-5-carbonitrile]
[9]; 1 ppm a.i.
  Efficacy in % found: 15%
[9]; 5 ppm a.i.
  Efficacy in % found: 45%
[4]; 1 ppm a.i.
  Efficacy in % found: 8%
[4]; 5 ppm a.i.
  Efficacy in % found: 60%
[1]; 1 ppm a.i.
  Efficacy in % found: 0%
[1]; 5 ppm a.i.
  Efficacy in % found: 0%
[10]; 0.008 ppm
  Efficacy %: 0%
[10]; 0.2 ppm
  Efficacy %: 0%
[6]; 0.008 ppm
  Efficacy %: 0%
[6]; 0.04 ppm
  Efficacy %: 28%
[6]; 0.2 ppm
  Efficacy %: 59%
[6]; 1 ppm
  Efficacy %: 68%
[3]
  LC50 at 48 h: 35.6 µg/mL
  LC50 at 96 h: 27.4 µg/mL
[11]; 1 ppm a.i.
  Efficacy in % found: 8%
[11]; 5 ppm a.i.
  Efficacy in % found: 66% and 68%
[7]; 1 ppm a.i.
  Efficacy in % found: 8% and 0%
[7]; 5 ppm a.i.
  Efficacy in % found: 93% and 88%

## N#Cc1cncn1CC(O)(Cc1cccc(Cl)c1F)C1(Cl)CC1 (stereo not drawn) [Example I-145, 1-[3-(3-chloro-2-fluorophenyl)-2-(1-chlorocyclopropyl)-2-hydroxypropyl]-1H-imidazole-5-carbonitrile]
[9]; 1 ppm a.i.
  Efficacy in % found: 8%
[9]; 5 ppm a.i.
  Efficacy in % found: 40%
[4]; 1 ppm a.i.
  Efficacy in % found: 23%
[4]; 5 ppm a.i.
  Efficacy in % found: 75%
[1]; 1 ppm a.i.
  Efficacy in % found: 0%
[1]; 5 ppm a.i.
  Efficacy in % found: 0%
[2]; 0.008 ppm
  Efficacy %: 0%
[2]; 0.04 ppm
  Efficacy %: 0% and 2%
[2]; 0.2 ppm
  Efficacy %: 32%
[2]; 1 ppm
  Efficacy %: 1%
[5]; 0.2 ppm
  Efficacy %: 84%
[5]; 1 ppm
  Efficacy %: 87%
[10]; 0.008 ppm
  Efficacy %: 0%
[10]; 0.04 ppm
  Efficacy %: 0%
[6]; 0.008 ppm
  Efficacy %: 29%
[6]; 0.04 ppm
  Efficacy %: 25%
[6]; 0.2 ppm
  Efficacy %: 51%
[6]; 1 ppm
  Efficacy %: 63%
[3]
  LC50 at 48 h: 28.2 µg/mL
  LC50 at 96 h: 13.4 µg/mL
[11]; 1 ppm a.i.
  Efficacy in % found: 0%
[11]; 5 ppm a.i.
  Efficacy in % found: 66%
[7]; 1 ppm a.i.
  Efficacy in % found: 0%
[7]; 5 ppm a.i.
  Efficacy in % found: 45%

## mancozeb [5.013 mancozeb]
[9]; 12.5 ppm a.i.
  Efficacy in % found: 8%
[9]; 25 ppm a.i.
  Efficacy in % found: 10%
[9]; 50 ppm a.i.
  Efficacy in % found: 85%
[4]; 12.5 ppm a.i.
  Efficacy in % found: 0%
[4]; 25 ppm a.i.
  Efficacy in % found: 0%
[4]; 50 ppm a.i.
  Efficacy in % found: 8%
[2]; 0.8 ppm
  Efficacy %: 51%
[2]; 4 ppm
  Efficacy %: 78%
[11]; 5 ppm a.i.
  Efficacy in % found: 15%
[11]; 10 ppm a.i.
  Efficacy in % found: 49%
[11]; 20 ppm a.i.
  Efficacy in % found: 95%
[7]; 12.5 ppm a.i.
  Efficacy in % found: 0%
[7]; 25 ppm a.i.
  Efficacy in % found: 15%
[7]; 50 ppm a.i.
  Efficacy in % found: 80%

## metalaxyl [12.003 metalaxyl]
[9]; 50 ppm a.i.
  Efficacy in % found: 8%
[9]; 100 ppm a.i.
  Efficacy in % found: 8%
[9]; 200 ppm a.i.
  Efficacy in % found: 30%
[4]; 50 ppm a.i.
  Efficacy in % found: 0%
[4]; 100 ppm a.i.
  Efficacy in % found: 0%
[4]; 200 ppm a.i.
  Efficacy in % found: 8%
[5]; 20 ppm
  Efficacy %: 0%
[5]; 100 ppm
  Efficacy %: 5%
[6]; 20 ppm
  Efficacy %: 43%
[6]; 100 ppm
  Efficacy %: 31%
[8]
  Ecotoxicity LC50-48 h found: >200 ppm a.i.
  Ecotoxicity LC50-96 h found: >200 ppm a.i.
[7]; 50 ppm a.i.
  Efficacy in % found: 0%
[7]; 100 ppm a.i.
  Efficacy in % found: 0%
[7]; 200 ppm a.i.
  Efficacy in % found: 20%

## metalaxyl-M (mefenoxam) [Example 12.004]
[8]
  Ecotoxicity LC50-48 h found: >200 ppm a.i.
  Ecotoxicity LC50-96 h found: >200 ppm a.i.
